Test results taken from patent US6861405B2, “Compositions and methods relating to glucose metabolism, weight control, and food intake” (priority 2001, dated 2005).
Entries after “also recorded” stand apart in the source; their conditions may differ.

Columns and labels:
[1] = therapeutic dosages; cited from earlier work
Kv1.3 = Kv1.3 (Homo sapiens, UniProt P22001); details: cited from earlier work; for inhibition of Kv1.3 activity: therapeutic levels
Kv1.1 = Kv1.1 (Homo sapiens, UniProt Q09470); details: cited from earlier work
Sequence of Kv1.1 (Q09470 whole entry): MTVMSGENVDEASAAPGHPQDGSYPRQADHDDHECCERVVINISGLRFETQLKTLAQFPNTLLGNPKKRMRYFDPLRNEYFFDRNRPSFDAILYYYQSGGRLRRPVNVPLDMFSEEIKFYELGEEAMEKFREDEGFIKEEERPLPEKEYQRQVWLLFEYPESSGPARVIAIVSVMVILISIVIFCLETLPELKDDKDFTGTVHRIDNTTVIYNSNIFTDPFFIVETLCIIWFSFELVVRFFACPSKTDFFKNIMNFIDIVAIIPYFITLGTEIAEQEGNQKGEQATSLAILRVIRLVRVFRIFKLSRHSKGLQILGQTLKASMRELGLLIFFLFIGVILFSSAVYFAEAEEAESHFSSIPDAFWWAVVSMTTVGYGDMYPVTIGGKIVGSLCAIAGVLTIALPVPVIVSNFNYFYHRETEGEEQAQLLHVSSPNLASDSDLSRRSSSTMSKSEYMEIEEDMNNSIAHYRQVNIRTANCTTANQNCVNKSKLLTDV

Kv1.2 = Kv1.2 (Homo sapiens, UniProt P16389); details: cited from earlier work
Sequence of Kv1.2 (P16389 whole entry): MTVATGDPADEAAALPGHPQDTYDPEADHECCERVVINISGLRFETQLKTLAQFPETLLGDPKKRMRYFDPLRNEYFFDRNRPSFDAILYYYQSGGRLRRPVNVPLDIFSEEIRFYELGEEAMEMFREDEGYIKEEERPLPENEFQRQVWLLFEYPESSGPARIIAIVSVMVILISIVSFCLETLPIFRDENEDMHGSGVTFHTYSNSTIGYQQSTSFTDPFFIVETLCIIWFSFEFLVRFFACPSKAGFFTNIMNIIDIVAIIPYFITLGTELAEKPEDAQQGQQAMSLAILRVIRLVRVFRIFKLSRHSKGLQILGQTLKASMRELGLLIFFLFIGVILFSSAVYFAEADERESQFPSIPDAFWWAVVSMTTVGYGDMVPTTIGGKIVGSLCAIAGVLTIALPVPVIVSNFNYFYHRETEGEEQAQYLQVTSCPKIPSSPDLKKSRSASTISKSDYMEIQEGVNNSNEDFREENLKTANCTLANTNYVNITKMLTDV

ob/ob mice [2] = assay: Insulin sensitivity (blood glucose after IP human insulin) in non-fasting ob/ob mice given toxin; assay type: in vivo, mouse; details: for insulin sensitivity: non-fasting ob/ob mice, toxin IP 30 minutes before insulin
Method: Non-fasting ob/ob (obese) mice (n=5), were given margatoxin 30 minutes prior to study as described elsewhere herein. Age-matched control ob/ob mice were sham injected with PBS. Both groups were given human insulin and blood glucose levels were monitored as described previously.
Non-fasting ob/ob (obese) mice (n=5), were given kaliotoxin (Alomone, Israel) 30 minutes prior to study as described elsewhere herein. Age-matched control ob/ob mice were sham injected with PBS. Both groups were given human insulin and blood glucose levels were monitored as described previously.

db/db mice = assay: Insulin sensitivity (blood glucose after IP human insulin) in fasting db/db mice given margatoxin; assay type: in vivo, mouse
Method: Fasting db/db (diabetic) mice (n=5), were given margatoxin 30 minutes prior to study as described elsewhere herein. Age-matched control db/db mice were sham injected with PBS. Both groups were given human insulin and blood glucose levels were monitored as described previously.

C57BL/6 mice = assay: Insulin sensitivity (blood glucose after IP human insulin) in wild type C57BL/6 mice given margatoxin; assay type: in vivo, mouse
Method: Plasma insulin levels and insulin sensitivity: Seven-week old C57BL6/6J male mice (n=5) were given 0.1 μg/gram body weight margatoxin 20 hours prior to study via IP injection. Controls (n=5) were sham injected with phosphate buffered saline (PBS). Two hours prior to study a second injection of margatoxin was administered to the treated experimental group. At t=0, both groups received human insulin as described previously. Blood glucose measurements were performed at the times indicated.

L6 cells = assay: D-glucose uptake in L6 cells; assay type: cell-based, rat
Method: D-glucose uptake in L6 cells: L6 cells were maintained in Dulbecco's Modified Eagle's Medium (DMEM) containing 10% fetal bovine serum (FBS) and 1% penicillin-streptomycin in T-75 flasks at 37° C. and 5% CO2. To promote fusion into myotubules and quiescence, L6 cells were seeded onto 10 cm^2 flasks at a density of 3000 cells/cm^2 in DMEM containing 2% FBS. Myotube formation was determined by the percentage of nuclei in multinucleated cells. Glucose uptake assays were performed when 80-90% of the myoblasts fused into myotubes. Cells were serum starved for 3 hours in DMEM containing 0.2% bovine serum albumin, washed twice in PBS with 0.1 mM CaCl2, 0.1 MgCl2, 10 mM HEPES, pH 7.4. […] 2-deoxy-(^3H)D-glucose (1 μCi/ml, 10 μM/liter) uptake was measured in triplicate over a 10 minute period. The reaction was terminated by washing with ice-cold PBS. Non-specific uptake was determined by adding 10 mM phloretin and was subtracted from total uptake. Cells were lysed in 0.1 N KOH, and glucose uptake was measured by liquid scintillation (Packard BioScience, Meriden Conn.). […] was measured by Bradford Assay.

ob/ob mice [3] = assay: Long-term pharmacological inhibition of Kv1.3 in ob/ob mice: food consumption and body weight; assay type: in vivo, mouse
Method: Long-term pharmacological inhibition of Kv1.3: Ob/ob mice were injected intraperitoneally with margatoxin or PBS (n=5 for each group) on days 0, 5, and 16 as described herein. Food consumption was monitored for 30 days, and weights were measured at the end of 30 days.

Sequence of Kv1.3 (P22001 whole entry): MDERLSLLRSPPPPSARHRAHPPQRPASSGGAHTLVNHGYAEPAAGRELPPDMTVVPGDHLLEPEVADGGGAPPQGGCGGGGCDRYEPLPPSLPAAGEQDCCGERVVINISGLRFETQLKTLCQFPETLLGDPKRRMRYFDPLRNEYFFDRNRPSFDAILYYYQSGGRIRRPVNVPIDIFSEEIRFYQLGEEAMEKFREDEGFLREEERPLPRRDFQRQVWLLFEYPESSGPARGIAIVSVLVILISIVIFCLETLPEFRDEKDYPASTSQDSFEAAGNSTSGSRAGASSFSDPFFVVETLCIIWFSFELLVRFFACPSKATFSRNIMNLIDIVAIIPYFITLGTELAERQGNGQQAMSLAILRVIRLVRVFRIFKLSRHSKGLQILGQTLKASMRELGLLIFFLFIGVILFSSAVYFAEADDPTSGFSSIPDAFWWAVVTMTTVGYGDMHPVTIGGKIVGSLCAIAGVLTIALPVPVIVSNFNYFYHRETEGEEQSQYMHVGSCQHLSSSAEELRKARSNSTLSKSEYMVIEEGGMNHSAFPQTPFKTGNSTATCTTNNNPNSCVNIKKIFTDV

CNCCC(Oc1ccc(C(F)(F)F)cc1)c1ccccc1 (stereo not drawn) [fluxetine]
insulin sensitivity [1]: increase insulin sensitivity | inhibition of Kv1.3 activity (Kv1.3): inhibit Kv1.3 activity

kaliotoxin
IC50 (Kv1.1): 40 nM | inhibition of Kv1.2 (Kv1.2): but not Kv1.2 | blood glucose, toxin and insulin vs insulin only (ob/ob mice [2]; animals treated with kaliotoxin and insulin): significantly lower blood glucose | insulin sensitivity (ob/ob mice [2]; vs PBS): significantly increased insulin sensitivity | IC50 (Kv1.3): 0.6 nM

margatoxin (TIINVKCTSPKQCLPPCKAQFGQSAGAKCMNGKCKCYPH)
inhibition of Kv1.2 (Kv1.2): also blocks Kv1.2 | fall in blood glucose of mice receiving insulin (db/db mice; db/db mice, margatoxin and insulin vs PBS and insulin): significantly greater fall in blood glucose | time at which difference in glucose levels was evident (db/db mice; db/db mice, margatoxin vs PBS): ≤ 30 min | time for which difference in glucose levels persisted (db/db mice; db/db mice, margatoxin vs PBS): up to 4.5 hours | sensitivity to insulin (db/db mice; fasting db/db mice, margatoxin IP 30 minutes before insulin, vs PBS): significant increase in sensitivity to insulin | insulin sensitivity (ob/ob mice [2]; vs PBS): significantly increased insulin sensitivity; also recorded: significantly more sensitive to insulin | time after insulin at which difference in glucose level was evident (ob/ob mice [2]; ob/ob mice, margatoxin vs PBS): ≤ 30 min | time for which difference in glucose level persisted (ob/ob mice [2]; ob/ob mice, margatoxin vs PBS): at least 3 hours | fall in blood glucose in response to insulin administration, greater than in control mice (ob/ob mice [2]; ob/ob mice, single injection of margatoxin, vs PBS): 50% | insulin sensitivity (C57BL/6 mice; C57BL/6 mice, 0.1 μg/gram margatoxin IP, vs sham (PBS) injected controls): increased insulin sensitivity | fasting blood glucose (C57BL/6 mice; wild type C57BL/6 mice, margatoxin injection prior to study, vs PBS): lower fasting blood glucose | blood glucose in response to insulin (C57BL/6 mice; wild type C57BL/6 mice, toxin-treated vs PBS): significantly lower blood glucose in response to insulin | glucose uptake in L6 cells, margatoxin together with insulin (L6 cells; 200 nM insulin and 250 nM margatoxin, vs either alone or neither): significantly increased glucose uptake; also recorded: additive to that of insulin | glucose uptake in L6 cells (L6 cells; 2-deoxy-D-glucose, phloretin-sensitive uptake, 0.2-250 nM margatoxin): increases uptake of glucose in L6 cells in a dose dependent manner; also recorded: significant increase in phloretin-sensitive glucose uptake | EC50 (L6 cells; L6 cells, read-out: concentration necessary for 1/2 maximal increase in glucose uptake): 53 nM | inhibition of Kv1.3 (Kv1.3): fairly specific and potent inhibitor of Kv1.3 | body weight vs controls (ob/ob mice [3]; ob/ob mice treated long term with margatoxin, IP days 0, 5, 16): weighed significantly less than controls | body weight after margatoxin treatment ceased at day 16 (ob/ob mice [3]; ob/ob mice, weights assessed to day 36): began to gain weight thereafter

COc1ccc(CCN(C)CCCC(C#N)(c2ccc(OC)c(OC)c2)C(C)C)cc1OC (stereo not drawn) [verapamil]
insulin sensitivity [1]: increase insulin sensitivity | inhibition of Kv1.3 activity (Kv1.3): inhibit Kv1.3 activity
